Results as given in US12521414B2, “Method for preventing or treating urological chronic pelvic pain syndrome” (priority 2022, dated 2026).

System: Human urothelial T24 cells
Assay: WST-1 cell viability assay, 4-HC-induced loss of T24 viability
Type: cell-based
Settings: 37.5 μM 4-HC for 4 h, WST-1 assay, n=3
Procedure: FIGS. 2A to 2D illustrate the CeNPs testing with human urothelial T24 cells in vitro. FIG. 2A illustrates that T24 cells were treated with 4-HC at concentrations of 0, 12.5, 25, 37.5, 50, 75, and 100 μM for 4 h (hours). Cell viability was examined utilizing the WST-1 assay (MK400, Takara, Mountain View, CA, USA).
FIG. 2B illustrates that 4-HC-induced loss of T24 viability was rescued by cerium oxide nanoparticle (CeNP) treatment (n=3). […] Fluorescence microscope images of the groups: (1) control group; (2) only 4-HC group: 37.5 μM 4-HC added for 4 h to induce cell oxidative stress; (3) CeNP treatment group: 5 μg/mL CeNPs were applied for 24 h before 4-h induction with 37.5 μM 4-HC; and (4) CeNP-only group: only 5 μg/mL CeNPs were applied for 24 h. […] Values are expressed as the mean±SD. Data were analyzed by one-way analysis of variance with Tukey's multiple comparisons test. *P<0.05, **P<0.01. n.s.: no statistical difference, (n=3).
Human urothelial T24 cells (#60062, BCRC, Taiwan) were cultured in 90% McCoy's 5a medium (Sigma, St. Louis, MO, USA) with 1.5 mM L-glutamine, 10% (v/v) fetal bovine serum, and 1% (v/v) PS. Cells were maintained at 37° C. in a humidified incubator containing 5% CO2 [6], and 4-HC was used to induce cellular oxidative stress. T24 cells were seeded into a 96-well plate at a density of 10^4 cells/well and incubated for 24 h until full adhesion was achieved. […]

O=P1(N(CCCl)CCCl)NC(OO)CCO1 (stereo not shown) [4-HC, 4-hydroperoxycyclophosphamide]
cell viability of T24 cells: approximately 50%
